In one experiment the test system is HIV-1 (H9IIIB strain). In words: Cell-Based HIV Infection Assay Using a Reporter (MT4-GFP cells). The following applies: Human immunodeficiency virus 1, inflection point (IP) of viral growth inhibition; MT4-GFP cells infected with HIV-1 H9IIIB; 50% normal human serum; mean of at least two independent experiments; read-out: Cell Based IP (50% NHS). Summed up: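 MT4-GFP cells (HIV LTR-driven GFP) bulk-infected with HIV-1 H9IIIB at low MOI for 24 h, washed, then exposed to compounds in RPMI plus 50% normal human serum, 0.4% DMSO. Infected cells counted at 24 and 48 h; R0 = 48 h/24 h ratio, inhibition normalised to DMSO and triple-drug control; IP from 4-parameter fit.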
Turning to `COC(=O)N[C@H](C(=O)N[C@H]1CCCC[C@@H]1CC[C@H]1CN[C@@H]2CCCS(=O)(=O)N1C2)[C@H](c1cncc(F)c1)c1ccc(Cl)c(F)c1` [Example 99, methyl [(1S,2S)-2-(4-chloro-3-fluorophenyl)-1-{[(1S,2R)-2-{2-[(6R,9S)-2,2-dioxido-2-thia-1,7-diazabicyclo[4.3.1]dec-9-yl]ethyl}cyclohexyl]carbamoyl}-2-(5-fluoropyridin-3-yl)ethyl]carbamate], the EC50 turned out to be 55 nM.

In the case of `COC(=O)N[C@H](C(=O)Nc1cccc(F)c1CCC1CNC2CCCS(=O)(=O)N1C2)[C@H](c1cncc(Cl)c1)c1ccc(Cl)c(F)c1` (stereo partly drawn) [Example 73, methyl [(1S,2S)-2-(4-chloro-3-fluorophenyl)-2-(5-chloropyridin-3-yl)-1-({2-[2-(2,2-dioxido-2-thia-1,7-diazabicyclo[4.3.1]dec-9-yl)ethyl]-3-fluorophenyl}carbamoyl)ethyl]carbamate], the EC50 worked out at 18 nM.

Consider `CC1(C)CC([C@H](c2ccc(F)cc2)[C@H](N)C(=O)Nc2ccc(F)c(F)c2CC[C@H]2CN[C@@H]3CCCS(=O)(=O)N2C3)CCO1` (stereo partly drawn) [Example 179, (βR)-β-(2,2-dimethyltetrahydro-2H-pyran-4-yl)-N-(2-{2-[(6R,9S)-2,2-dioxido-2-thia-1,7-diazabicyclo[4.3.1]dec-9-yl]ethyl}-3,4-difluorophenyl)-4-fluoro-L-phenylalaninamide], for which the EC50 turned out to be 31 nM.

In the case of `Cn1nc(C(F)(F)F)cc1[C@H](c1ccc(Cl)c(F)c1)[C@H](N)C(=O)Nc1cccc(F)c1CC[C@H]1CN[C@@H]2CCCS(=O)(=O)N1C2` [Example 267, (βR)-4-chloro-N-(2-{2-[(6R,9S)-2,2-dioxido-2-thia-1,7-diazabicyclo[4.3.1]dec-9-yl]ethyl}-3-fluorophenyl)-3-fluoro-β-[1-methyl-3-(trifluoromethyl)-1H-pyrazol-5-yl]-L-phenylalaninamide], the EC50 worked out at 8 nM.

For the compound `N[C@H](C(=O)Nc1cccc(F)c1OCC1CNC2CCCS(=O)(=O)N1C2)[C@@H](c1ccc(F)cc1)c1cc(F)cc(F)c1` (stereo partly drawn) [Example 84, (βS)-β-(3,5-difluorophenyl)-N-{2-[(2,2-dioxido-2-thia-1,7-diazabicyclo[4.3.1]dec-9-yl)methoxy]-3-fluorophenyl}-4-fluoro-L-phenylalaninamide], the EC50 was 210 nM.

Regarding `COC(=O)N[C@H](C(=O)N[C@H]1CCC[C@@H]1CC[C@H]1CN[C@@H]2CCCS(=O)(=O)N1C2)C(c1ccc(F)cc1)c1ccc(F)cc1` [Example 49, methyl [(1S)-1-[bis(4-fluorophenyl)methyl]-2-{[(1S,2R)-2-{2-[(6R,9S)-2,2-dioxido-2-thia-1,7-diazabicyclo[4.3.1]dec-9-yl]ethyl}cyclopentyl]amino}-2-oxoethyl]carbamate], the EC50 was determined as 18 nM.

On to `COC(=O)N[C@H](C(=O)Nc1cccc(F)c1CCC1CNC2CCCS(=O)(=O)N1C2)[C@@H](c1ccc(F)cc1)c1cc(F)cc(F)c1` (stereo partly drawn) [Example 35, methyl [(1S,2S)-2-(3,5-difluorophenyl)-1-({2-[2-(2,2-dioxido-2-thia-1,7-diazabicyclo[4.3.1]dec-9-yl)ethyl]-3-fluorophenyl}carbamoyl)-2-(4-fluorophenyl)ethyl]carbamate], for which the EC50 was determined as 3.8 nM.

Consider `COc1ccc([C@H](c2ccc(Cl)cc2)[C@H](N)C(=O)N[C@H]2CCCC[C@@H]2CC[C@H]2CN[C@@H]3CCCS(=O)(=O)N2C3)cn1` [Example 155, (βS)-4-chloro-N-[(1S,2R)-2-{2-[(6R,9S)-2,2-dioxido-2-thia-1,7-diazabicyclo[4.3.1]dec-9-yl]ethyl}cyclohexyl]-β-(6-methoxypyridin-3-yl)-L-phenylalaninamide], for which the EC50 came out at 600 nM.

For the compound `COC(=O)CCCN[C@H](C(=O)N[C@H]1CCC[C@@H]1CC[C@H]1CN[C@@H]2CCCS(=O)(=O)N1C2)[C@@H](c1ccc(Cl)cc1)C1CCOC(C)(C)C1` (stereo partly drawn) [Example 229, methyl 4-{[(1S,2R)-2-(4-chlorophenyl)-2-(2,2-dimethyltetrahydro-2H-pyran-4-yl)-1-{[(1S,2R)-2-{2-[(6R,9S)-2,2-dioxido-2-thia-1,7-diazabicyclo[4.3.1]dec-9-yl]ethyl}cyclopentyl]carbamoyl}ethyl]amino} butanoate], the EC50 is 210 nM.

In the case of `COC(=O)N[C@H](C(=O)N[C@H]1CCC[C@@H]1CC[C@H]1CN[C@@H]2CCCS(=O)(=O)N1C2)[C@H](c1cncc(C(F)(F)F)c1)c1ccc(Cl)c(F)c1` [Example 79, methyl {(1S,2S)-2-(4-chloro-3-fluorophenyl)-1-{[(1S,2R)-2-{2-[(6R,9S)-2,2-dioxido-2-thia-1,7-diazabicyclo[4.3.1]dec-9-yl]ethyl}cyclopentyl]carbamoyl}-2-[5-(trifluoromethyl)pyridin-3-yl]ethyl}carbamate], the EC50 worked out at 31 nM.

As for `CC1(C)CC([C@H](c2ccc(Cl)cc2)[C@H](NC(=O)C(C)(C)N)C(=O)N[C@H]2CCC[C@@H]2CC[C@H]2CN[C@@H]3CCCS(=O)(=O)N2C3)CCO1` (stereo partly drawn) [Example 237, 2-methylalanyl-(βR)-4-chloro-β-(2,2-dimethyltetrahydro-2H-pyran-4-yl)-N-[(1S,2R)-2-{2-[(6R,9S)-2,2-dioxido-2-thia-1,7-diazabicyclo[4.3.1]dec-9-yl]ethyl}cyclopentyl]-L-phenylalaninamide], the EC50 worked out at 150 nM.

`CC1(C)CC([C@H](c2ccc(Cl)cc2)[C@H](N)C(=O)N[C@H]2CCC[C@@H]2CC[C@H]2CN[C@@H]3CCCS(=O)(=O)N2C3)CCO1` (stereo partly drawn) [Example 55, (βR)-4-chloro-β-(2,2-dimethyltetrahydro-2H-pyran-4-yl)-N-[(1S,2R)-2-{2-[(6R,9S)-2,2-dioxido-2-thia-1,7-diazabicyclo[4.3.1]dec-9-yl]ethyl}cyclopentyl]-L-phenylalaninamide]: the EC50 came to 80 nM.

Take `N[C@H](C(=O)Nc1c(F)ccc(F)c1CC[C@H]1CN[C@@H]2CCCS(=O)(=O)N1C2)[C@@H](c1ccc(Cl)cc1)C1CCOCC1` [Example 91, (βR)-4-chloro-N-(2-{2-[(6R,9S)-2,2-dioxido-2-thia-1,7-diazabicyclo[4.3.1]dec-9-yl]ethyl}-3,6-difluorophenyl)-β-(tetrahydro-2H-pyran-4-yl)-L-phenylalaninamide]: the EC50 is 22 nM.

Turning to `COC(=O)N[C@H](C(=O)Nc1cncc(F)c1CC[C@H]1CN[C@@H]2CCCS(=O)(=O)N1C2)[C@@H](c1ccc(Cl)cc1)C1CCOCC1` [Example 174, methyl [(1S,2R)-2-(4-chlorophenyl)-1-[(4-{2-[(6R,9S)-2,2-dioxido-2-thia-1,7-diazabicyclo[4.3.1]dec-9-yl]ethyl}-5-fluoropyridin-3-yl)carbamoyl]-2-(tetrahydro-2H-pyran-4-yl)ethyl]carbamate], the EC50 turned out to be 89 nM.

Consider `CCOC[C@H]1CC[C@H]([C@H](c2ccc(Cl)cc2)[C@H](N)C(=O)Nc2cncc(F)c2CC[C@H]2CN[C@@H]3CCCS(=O)(=O)N2C3)CC1` [Example 258, (βR)-4-chloro-N-(4-{2-[(6R,9S)-2,2-dioxido-2-thia-1,7-diazabicyclo[4.3.1]dec-9-yl]ethyl}-5-fluoropyridin-3-yl)-β-[(1r,4R)-4-(ethoxymethyl)cyclohexyl]-L-phenylalaninamide], for which the EC50 stood at 3.4 nM.

As for `CC[C@H](C)N[C@H](C(=O)N[C@H]1CCC[C@@H]1CC[C@H]1CN[C@@H]2CCCS(=O)(=O)N1C2)[C@@H](c1ccc(Cl)cc1)C1CCOC(C)(C)C1` (stereo partly drawn) [Example 183, (βR)-4-chloro-β-(2,2-dimethyltetrahydro-2H-pyran-4-yl)-N-[(1S,2R)-2-{2-[(6R,9S)-2,2-dioxido-2-thia-1,7-diazabicyclo[4.3.1]dec-9-yl]ethyl}cyclopentyl]-Nα-[(1S)-1-methylpropyl]-L-phenylalaninamide], the EC50 came to 1300 nM.

Turning to `C[C@@H]1C[C@](c2ccc(Cl)cc2)([C@H](N)C(=O)N[C@H]2CCCC[C@@H]2CC[C@H]2CN[C@@H]3CCCS(=O)(=O)N2C3)C[C@H](C)O1` [Example 170, (2S)-2-amino-2-[(2R,4r,6S)-4-(4-chlorophenyl)-2,6-dimethyltetrahydro-2H-pyran-4-yl]-N-[(1S,2R)-2-{2-[(6R,9S)-2,2-dioxido-2-thia-1,7-diazabicyclo[4.3.1]dec-9-yl]ethyl}cyclohexyl]ethanamide], the EC50 came to 230 nM.

Turning to `COC(=O)N[C@H](C(=O)Nc1ccc(F)c(F)c1CC[C@H]1CN[C@@H]2CCCS(=O)(=O)N1C2)[C@@H](c1ccc(F)cc1)[C@H]1CC[C@H](OC)CC1` [Example 26, Methyl ((2S,3R)-1-((2-(2-((6R,9S)-2,2-dioxido-2-thia-1,7-diazabicyclo[4.3.1]decan-9-yl)ethyl)-3,4-difluorophenyl)amino)-3-(4-fluorophenyl)-3-((1r,4R)-4-methoxycyclohexyl)-1-oxopropan-2-yl)carbamate], the EC50 stood at 11 nM.

As to `N[C@H](C(=O)Nc1cncc(F)c1CC[C@H]1CN[C@@H]2CCCS(=O)(=O)N1C2)[C@@H](c1ccc(Cl)cc1)c1cc(F)cc(F)c1` [Example 236, (βS)-β-(4-chlorophcnyl)-N-(4-{2-[(6R,9S)-2,2-dioxido-2-thia-1,7-diazabicyclo[4.3.1]dec-9-yl]ethyl}-5-fluoropyridin-3-yl)-3,5-difluoro-L-phenylalaninamide], the EC50 amounted to 2.8 nM.

Staying with this experiment, now noted: inflection point (IP) of viral growth inhibition; MT4-GFP cells infected with HIV-1 H9IIIB; 50% normal human serum; mean of at least two independent experiments; read-out: Cell Based IP (50% NHS).
Regarding `COC(=O)N[C@H](C(=O)Nc1cncc(F)c1CC[C@H]1CN[C@@H]2CCCS(=O)(=O)N1C2)C1(c2ccc(Cl)cc2)CCC(C(F)(F)F)CC1` (relative stereo) [Example 270, methyl {(1S)-1-[cis-1-(4-chlorophenyl)-4-(trifluoromethyl)cyclohexyl]-2-[(4-{2-[(6R,9S)-2,2-dioxido-2-thia-1,7-diazabicyclo[4.3.1]dec-9-yl]ethyl}-5-fluoropyridin-3-yl)amino]-2-oxoethyl}carbamate], the EC50 is reported as 20 nM.

For the origin of these results see patent US10138255B2, “Piperazine derivatives as HIV protease inhibitors” (Merck Sharp & Dohme Corp., priority 2014, dated 2018).
